# Data from patent US10664967B2, “Methods, systems, and apparatuses for quantitative analysis of heterogeneous biomarker distribution” (Ventana Medical Systems, Inc., priority 2014, dated 2020).
# Tested on: SKBR3 cells
# Assay: Phosphomarker expression in untreated vs drug treated FFPE SKBR3 cells (multiplexed QD spectral imaging, IF, immunoblot)
# Type: cell-based
# Conditions: 250 nM, 24 hrs, MTIP, consistent with IF and immunoblot
# Protocol: Breast cancer cell line model SKBR3 and the prostate adenocarcinoma cell line model LNCaP were cultured in McCoy's 5A medium supplemented with 10% FBS. SKBR3 cells were treated with the ATP-competitive pan-AKT kinase inhibitor drug GSK690693 at low nanomolar concentration (250 nM) for 24 hrs for antibody validation studies. After drug treatment, cells were washed using cold 1×PBS, fixed in cold 10% Neutral Buffered Formalin and embedded in paraffin for sectioning and slide preparation.
# Protein samples from SKBR3 cells were prepared by denaturing cell lysate in an equal volume of Laemmli sample buffer (Biorad, Hercules, Calif.) with 0.5 M dithiothreitol at 100° C. for 5 min. Proteins were separated by SDS-PAGE, transferred to polyvinylidene difluoride membranes, blotted with primary antibodies and detected with horseradish peroxidase-conjugated secondary antibodies. Protein bands were detected using ECL (Thermo Scientific).
# Immunostaining for fluorescence spectral imaging was performed on FFPE specimens of SKBR3 cells and tumor tissue on a Benchmark XT autostainer (Ventana Medical Systems, Tucson, Ariz.), to evaluate phosphoprotein staining with the hapten-anti-hapten chemistry in FFPE cell and tumor specimens. All FFPE specimens (cell models, xenograft or tumor tissues) were subjected to automated deparaffinization in EZPREP buffer (VMSI Cat #950-102), and cell conditioning with CC1 buffer (VMSI Cat #950-124) for 90 min prior to antibody incubations. FFPE specimens were incubated with a single or a cocktail of hapten-conjugated primary antibodies (pS6:BF, pAKT 5473:DIG, peIF4G:TS, pPRAS40:NP, pERK 1/2:NCA, pAKT T308:DNP at 5, 15, 20, 20, 30, 12.5 μg/mL respectively) at 37° C. for 32 minutes. Following the primary antibody incubation step, samples were incubated by appropriate combination of secondary anti-hapten antibody QD conjugates (anti-BF:QD525, anti-DIG:QD565, anti-TS:QD585, anti-NP:[…], anti-NCA:QD625, anti-DNP:QD655 at 40, 50, 50, 70, 40, 30 nM concentrations respectively) at 37° C. for 32 minutes. Following automated staining with antibodies, samples were dehydrated in ethanol series, followed by xylene, and mounted using Cytoseal 60 (Thermo Scientific).
# The specificity of the antibodies selected was tested using a series of IHC experiments using FFPE cell and xenograft model systems (FIGS. 14 15 and 16). The anti-phosphomarker hapten conjugated primary and anti-hapten monoclonal secondary functionality was tested using the SKBR3 cell line, a well-established breast cancer model of PI3K pathway activation (Englemen PNAS ref). SKBR3 cells were either untreated or treated with the AKT small molecule inhibitor GSK690693. The two cell populations were prepared as FFPE blocks and stained using the anti-phosphomarker primaries, followed by anti-hapten secondary antibodies conjugated to HRP to permit contrast through DAB. This permitted verification of the hapten-anti-hapten labeling scheme (FIG. 14; the DAB stain pattern was consistent with primary-anti-species secondary staining performed in parallel).
# A multiplexed experiment was then conducted using the combined markers followed by hyperspectral imaging and processing to separate the signal contributions for each marker (FIG. 14b). For additional comparison, SKBR3 cell lysates were subjected to immunoblotting with all six phosphoantibodies (FIG. 14c). […] The similarity of phosphomarker expression changes upon drug treatment detected using MTIP to that observed in the IF and immunoblot staining validate the specificity and functionality of the conjugated antibodies used in the multiplexed assay context.
smiles,measurement,value
CCn1c(-c2nonc2N)nc2c(C#CC(C)(C)O)ncc(OC[C@H]3CCCNC3)c21 [GSK690693],pAKT308 expression change following drug treatment,relative increase in expression
same,pAKT473 expression change following drug treatment,relative increase in expression
same,pERK expression change following drug treatment,reduction in the expression
same,pPRAS40 expression change following drug treatment,reduction in the expression
same,pS6 expression change following drug treatment,reduction in the expression
same,peIF4G expression change following drug treatment,did not show any significant change in the expression
